Reference: PubChem BioAssay (NCI)
Values joined by “and” are separate entries in the source; they are usually repeats but may differ in a detail not shown here. Equal values may be shown once.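 Dose response: 5 concentrations. Exposure: 48 h. Format: 96-well plates. Endpoint: linear interpolation; highest concentration if not reached. GI50 marks 50% less growth. TGI marks complete inhibition of growth.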

Columns and labels:
Test in all cases: NCI anticancer screen, dose series, 48 h
SW-620 colon = test system: SW-620 colon
ACHN renal = test system: ACHN renal
HCT-116 colon = test system: HCT-116 colon
MALME-3M melanoma = test system: MALME-3M melanoma
OVCAR-5 ovarian = test system: OVCAR-5 ovarian
M14 melanoma = test system: M14 melanoma
CCRF-CEM leukemia = test system: CCRF-CEM leukemia
NCI/ADR-RES ovarian = test system: NCI/ADR-RES ovarian
SK-MEL-5 melanoma = test system: SK-MEL-5 melanoma
SNB-19 CNS = test system: SNB-19 CNS

Row | SMILES | GI50 (SW-620 colon) | TGI (SW-620 colon) | GI50 (ACHN renal) | TGI (ACHN renal) | GI50 (HCT-116 colon) | TGI (HCT-116 colon) | GI50 (MALME-3M melanoma) | TGI (MALME-3M melanoma) | GI50 (OVCAR-5 ovarian) | TGI (OVCAR-5 ovarian) | GI50 (M14 melanoma) | TGI (M14 melanoma) | GI50 (CCRF-CEM leukemia) | TGI (CCRF-CEM leukemia) | GI50 (NCI/ADR-RES ovarian) | TGI (NCI/ADR-RES ovarian) | GI50 (SK-MEL-5 melanoma) | TGI (SK-MEL-5 melanoma) | GI50 (SNB-19 CNS) | TGI (SNB-19 CNS)
1 | CN(CC(=O)N(Cc1ccc(C2CCCCC2)cc1)c1ccc(C(=O)O)cc1)S(=O)(=O)c1c(F)c(F)c(F)c(F)c1F | 2.03 µM | 4.05 µM | 1.74 µM | 3.15 µM | 1.93 µM | 3.68 µM | 1.7 µM | 3.64 µM | 10.8 µM | 23.8 µM | 1.91 µM | 3.59 µM | 2.69 µM | 6.81 µM | 2.14 µM | 5.26 µM | 1.84 µM | 3.58 µM | – | –
2 | C=CC(=O)N1CC2(CC(n3nc(-c4ccc5c(cnn5C)c4)c(-c4c(Cl)c(C)cc5[nH]ncc45)c3C)C2)C1 | 3.23 µM | 10.3 µM | 2.01 µM | 4.81 µM | 1.83 µM | 3.74 µM | 2.44 µM | 5.09 µM | 4.03 µM | 13.9 µM | 2.88 µM | 11.2 µM | 2.67 µM | 14.8 µM | 2.23 µM | 5.21 µM | 1.61 µM | 3.02 µM | 3.43 µM | 13.5 µM
3 | Cn1ncc(Cl)c1-c1cc(C(=O)N[C@H](CN)Cc2ccc(F)c(F)c2)oc1Cl | 7.82 µM and 4.1 µM | 21.8 µM and > 10 µM | 2.23 µM and 1.86 µM | 14.2 µM and > 10 µM | 1.67 µM and 1.76 µM | 8.09 µM and > 6.83 µM | 0.36 µM and 0.687 µM | 1.61 µM and 2.59 µM | 0.426 µM and 2.45 µM | 9.12 µM and > 10 µM | 1.59 µM and 1.49 µM | 5.7 µM and 3.71 µM | 0.197 µM and 0.196 µM | 11.8 µM and > 10 µM | 10.2 µM and 2.94 µM | 24.5 µM and > 10 µM | 2.15 µM and 1.48 µM | 5.8 µM and 2.87 µM | 0.486 µM and 0.252 µM | 12.9 µM and > 10 µM
4 | Cc1cc([N+](=O)[O-])c2ccccc2[n+]1[O-] | 0.0728 µM and 0.0543 µM | 0.766 µM and 0.523 µM | 0.0758 µM and 0.0614 µM | 0.394 µM and 0.721 µM | 0.0472 µM and 0.0407 µM | 0.336 µM and 0.364 µM | 1.39 µM and 2.17 µM | 3.07 µM and 4.34 µM | 2.02 µM and 2.26 µM | 7.21 µM and 7.12 µM | 0.239 µM and 0.259 µM | 1.08 µM and 1.11 µM | 2.24 µM and 0.65 µM | > 47.8 µM and 7.18 µM | 0.547 µM and 1.42 µM | 3.45 µM and 7.68 µM | 0.171 µM and 0.157 µM | 0.334 µM and 0.355 µM | 0.448 µM and 0.848 µM | 4.06 µM and 8.29 µM
5 | COc1cccc(/C=C2\COc3ccc(-c4ccccc4)cc3C2=O)c1 | 2.01 µM | 4.54 µM | 2.13 µM | 5.59 µM | 1.68 µM | 3.47 µM | 2.53 µM | 12.6 µM | 3.67 µM | 13.2 µM | 3.87 µM | 14.9 µM | 2.42 µM | 28.1 µM | 3.63 µM | 14.5 µM | 1.67 µM | 3.55 µM | 2.7 µM | 7.21 µM
6 | CCn1c(-c2nonc2N)nc2cncc(C(=O)N3CC[C@H](N)C3)c21 | > 25 µM | > 25 µM | > 25 µM | > 25 µM | 9.9 µM | > 25 µM | > 25 µM | > 25 µM | > 25 µM | > 25 µM | 24.6 µM | > 25 µM | 15.2 µM | > 25 µM | > 25 µM | > 25 µM | > 25 µM | > 25 µM | > 25 µM | > 25 µM
7 | Cn1cc(C2=C(c3cn(CCCCCSC(=N)N)c4ccccc34)C(=O)NC2=O)c2ccccc21 | 2.96 µM | 6.54 µM | 3.54 µM | 6.94 µM | 1.08 µM | 4.53 µM | 4.25 µM | 8.08 µM | 4.48 µM | 8.26 µM | 3.23 µM | 6.87 µM | 1.93 µM | 5.87 µM | 8.18 µM | 21 µM | 3.28 µM | 6.67 µM | 3.52 µM | 6.82 µM
8 | CSc1ccc2c(c1)C(N1CCN(C)CC1)Cc1ccccc1S2 (stereo unspecified) | 1.69 µM | 20.6 µM and 3.42 µM | 1.96 µM | 12.2 µM and 3.95 µM | 1.98 µM | 16 µM and 4.03 µM | – | 4.28 µM and 3.41 µM | 1.95 µM | 7.25 µM and 3.67 µM | – | 3.77 µM and 3.53 µM | 1.7 µM | 0.845 µM and 3.84 µM | 1.96 µM | 19 µM and 4.58 µM | 1.56 µM | 3.53 µM and 2.9 µM | 2.36 µM | 28.5 µM and 6.13 µM
9 | O=C(CC(Cl)=C(Cl)Cl)c1cccc(Cl)c1Cl | 88.7 µM | > 100 µM | 47.7 µM | > 100 µM | 42.6 µM | > 100 µM | > 100 µM | > 100 µM | > 100 µM | > 100 µM | > 100 µM | > 100 µM | 46.6 µM | > 100 µM | 85.1 µM | > 100 µM | > 100 µM | > 100 µM | > 100 µM | > 100 µM
